Experimental data from US20060063782A1, “3-Hetero arylmethoxy ! pyridines and their analogues as p38 map kinase inhibitors” (priority 2002, published 2006).

The compounds below were run against p38 MAP kinase (Homo sapiens, UniProt Q16539) (assay: p38 MAP Kinase Assay (33P incorporation into myelin basic protein, filter plate)). Settings: Table 1; MKK6-activated p38, MBP substrate, 50 minutes.
Type: biochemical
Protocol: The activated p38 is then diluted 1:6 with assay buffer, and 20 μl mixed with 25 μl of MBP mix (300 μl 10×strength assay buffer, 300 μl of 10 mM DTT & 10 mM sodium orthovanadate, 1.7 ml H2O, 50 μCi γ^33P-ATP, 200 μl of myelin basic protein (MBP) (5 mg/ml)) and added to 96 well plates along with 5 μl of various dilutions of the test compound in DMSO (up to 10%). The reaction is allowed to proceed for 50 minutes before being stopped with an excess of ortho-phosphoric acid (30 μl at 2%).
γ^33P-ATP which remains unincorporated into the myelin basic protein is separated from phosphorylated MBP on a Millipore MAPH filter plate. The wells of the MAPH plate are wetted with 0.5% orthophosphoric acid, and then the results of the reaction are filtered with a Millipore vacuum filtration unit through the wells. Following filtration, the residue is washed twice with 200 μl of 0.5% orthophosphoric acid. Once the filters have dried, 25 μl of Microscint 20 scintillant is added, and then counted on a Packard Topcount for 30 seconds.

Chain of p38 MAP kinase (Q16539 whole entry): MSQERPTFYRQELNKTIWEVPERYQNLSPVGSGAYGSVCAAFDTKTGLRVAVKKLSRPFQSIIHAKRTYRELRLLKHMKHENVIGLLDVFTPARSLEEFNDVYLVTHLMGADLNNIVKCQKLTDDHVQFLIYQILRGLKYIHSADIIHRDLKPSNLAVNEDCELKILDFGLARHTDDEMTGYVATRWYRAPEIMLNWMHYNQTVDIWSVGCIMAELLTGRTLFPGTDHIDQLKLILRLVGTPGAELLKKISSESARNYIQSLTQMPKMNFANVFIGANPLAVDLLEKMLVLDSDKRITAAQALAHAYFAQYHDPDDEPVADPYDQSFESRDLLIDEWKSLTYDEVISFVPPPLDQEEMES

| IC50 [µM] | Structure (SMILES) |
| --- | --- |
| < 2 | O=C(Nc1ccc(Cl)c(COc2cccnc2)c1)c1ccnc(N2CCOCC2)c1 [Compound 44, N-[4-Chloro-3-(pyridin-3-yloxymethyl)-phenyl]-2-morpholin-4-yl-isonicotinamide] |
| < 20 | NC(=O)Nc1ccc(Cl)c(COc2cccnc2)c1 [Compound 63, [4-Chloro-3-(pyridin-3-yloxymethyl)-phenyl]-urea] |
| < 1000 | Cc1cccc(COc2cccnc2N)c1F [Compound 28] |
| < 20 | O=C(Nc1ccc(Cl)c(COc2cccnc2)c1)c1cccc(C(F)(F)F)c1 [Compound 69, N-[4-Chloro-3-(pyridin-3-yloxymethyl)-phenyl]-3-trifluoromethyl-benzamide] |
| < 2 | CC(C)(C)c1cc(NC(=O)Nc2ccc(Cl)c(COc3cccnc3)c2)n(-c2ccccc2)n1 [Compound 64, 1-(5-tert-Butyl-2-phenyl-2H-pyrazol-3-yl)-3-[4-chloro-3-(pyridin-3-yloxymethyl)-phenyl]-urea] |
| < 1000 | Nc1ncccc1OCc1cccc(Cl)c1 [Compound 9, 2-amino-3-(3-chlorobenzyloxy)pyridine] |
| < 20 | O=C(Nc1ccc(Cl)c(COc2cccnc2)c1)c1ccccc1 [Compound 52, N-[4-Chloro-3-(pyridin-3-yloxymethyl)-phenyl]-benzamide] |
| < 20 | CC(C)c1nnc(NC(=O)Nc2ccc(F)c(COc3cccnc3)c2)s1 [Compound 81, 1-[4-Fluoro-3-(pyridin-3-yloxymethyl)-phenyl]-3-(5-isopropyl-[1,3,4]thiadiazol-2-yl)-urea] |
| < 20 | O=C(Nc1ccccc1)Nc1ccc(Cl)c(COc2cccnc2)c1 [Compound 61, 1-[4-Chloro-3-(pyridin-3-yloxymethyl)-phenyl]-3-phenyl-urea] |
| < 10 | Nc1ncccc1OCc1ccccc1-c1ccccc1 [Compound 2] |
| < 1000 | Nc1ncccc1OCc1c(F)cccc1Cl [Compound 22] |
| < 10000 | Nc1ncccc1OCc1cccc(OC(F)(F)F)c1 [Compound 24] |
| < 1000 | Nc1ncccc1OCc1ccc(F)c(F)c1 [Compound 14, 2-amino-3-(3,4-difluorobenzyloxy)pyridine] |
| < 2000 | Clc1ncccc1OCc1ccccc1 [Compound 10, 3-Benzyloxy-2-chloropyridine] |
| < 200 | O=C(Nc1ccc(F)c(COc2cccnc2)c1)c1cccc(F)c1 [Compound 60, 3-Fluoro-N-[4-fluoro-3-(pyridin-3-yloxymethyl)-phenyl]-benzamide] |

Same assay, conditions: Table 2; MKK6-activated p38, MBP substrate, 50 minutes

| Structure (SMILES) | IC50 [µM] |
| --- | --- |
| COc1cc(C(=O)Nc2ccc(F)c(COc3cnccn3)c2)nc(Cl)n1 [Compound 105, 2-Chloro-6-methoxy-pyrimidine-4-carboxylic acid [4-fluoro-3-(pyrazin-2-yloxymethyl)-phenyl]-amide] | < 1000 |
| O=C(Nc1ccc(F)c(COc2cnccn2)c1)Oc1cccc(C(F)(F)F)c1 [Compound 99, [4-Fluoro-3-(pyrazin-2-yloxymethyl)-phenyl]-carbamic acid 3-trifluoromethyl-phenyl ester] | < 20 |
| Nc1ccc(Cl)c(COc2cnccn2)c1 [Compound 91] | < 1000 |
| CC(C)(C)c1cc(NC(=O)Oc2cccc(COc3cnccn3)c2)n(-c2ccccc2)n1 [Compound 142] | < 200 |
| O=C(Nc1ccc(F)c(COc2cnccn2)c1)c1cccc(Oc2ccccc2)c1 [Compound 102, N-[4-Fluoro-3-(pyrazin-2-yloxymethyl)-phenyl]-3-phenoxy-benzamide] | < 2 |
| Nc1ncc(OCc2cccc3ccccc23)nc1Br [Compound 83] | < 1000 |
| Nc1ncc(OCc2ccccc2)nc1Br [Compound 84] | < 1000 |
| Clc1cccc(Cl)c1COc1cnccn1 [Compound 87] | < 200 |
| Nc1cccc(COc2cncc(Cl)n2)c1 [Compound 85] | < 1000 |
| Nc1nccnc1OCc1c(Cl)cccc1Cl [Compound 90] | < 1000 |

Results, then the compound that gave them:

| IC50 [µM] | Structure (SMILES) |
| --- | --- |
| < 200 | O=C(CC1CCOCC1)Nc1cnc(OCc2c(Cl)cccc2Cl)cn1 [Compound 173] |
| < 2 | O=C(Nc1ccc(F)c(COc2cnccn2)c1)Nc1nnc(C2CCCO2)s1 (stereo not shown) [Compound 120, 1-[4-Fluoro-3-(pyrazin-2-yloxymethyl)-phenyl]-3-[5-(tetrahydro-furan-2-yl)-[1,3,4]thiadiazol-2-yl]-urea] |
| < 2 | CC(C)(C)c1cc(C(=O)Nc2ccc(F)c(COc3cnccn3)c2)cc(C(C)(C)C)c1 [Compound 146, 3,5-Di-tert-butyl-N-[4-fluoro-3-(pyrazin-2-yloxymethyl)-phenyl]-benzamide] |
| < 200 | OCCNc1cnc(OCc2c(Cl)cccc2Cl)cn1 [Compound 158, 2-[5-(2,6-Dichloro-benzyloxy)-pyrazin-2-ylamino]-ethanol] |
| < 200 | Clc1cccc(Cl)c1COc1cnc(NC2CCOCC2)cn1 [Compound 166] |
| < 20 | CC(C)(CO)NC(=O)c1cnc(OCc2c(Cl)cccc2Cl)cn1 [Compound 113, 5-(2,6-Dichloro-benzyloxy)-pyrazine-2-carboxylic acid (2-hydroxy-1,1-dimethyl-ethyl)-amide] |
| < 20 | O=C(Nc1ccc(F)c(COc2cnccn2)c1)c1ccc2ccccc2c1 [Compound 131, Naphthalene-2-carboxylic acid [4-fluoro-3-(pyrazin-2-yloxymethyl)-phenyl]-amide] |
| < 200 | C=CS(=O)(=O)Nc1cnc(OCc2c(Cl)cccc2Cl)cn1 [Compound 145] |
| < 200 | CC(C)(CO)C(=O)Nc1cnc(OCc2c(Cl)cccc2Cl)cn1 [Compound 177] |
| < 2 | O=C(Nc1cnc(OCc2c(Cl)cccc2Cl)cn1)N1CCOCC1 [Compound 175] |
| < 20 | CC(C)(Cc1ccncc1)NC(=O)c1cnc(OCc2c(Cl)cccc2Cl)cn1 [Compound 139, 5-(2,6-Dichloro-benzyloxy)-pyrazine-2-carboxylic acid (1,1-dimethyl-2-pyridin-4-yl-ethyl)-amide] |
| < 2 | O=C(Nc1ccc(F)c(COc2cnccn2)c1)Nc1cc(C2CCOCC2)nn1-c1ccc(F)cc1 [Compound 165, 1-[2-(4-Fluoro-phenyl)-5-(tetrahydro-pyran-4-yl)-2H-pyrazol-3-yl]-3-[4-fluoro-3-(pyrazin-2-yloxymethyl)-phenyl]-urea] |
| < 200 | CC(C)(C)c1ccc2[nH]cc(CC(=O)Nc3ccc(F)c(COc4cnccn4)c3)c2c1 [Compound 143] |
| < 20 | O=C(Nc1ccc(F)c(COc2cnccn2)c1)Nc1nc(-c2ccccc2)cs1 [Compound 123, 1-[4-Fluoro-3-(pyrazin-2-yloxymethyl)-phenyl]-3-(4-phenyl-thiazol-2-yl)-urea] |
| < 200 | O=C(Nc1ccc(F)c(COc2cnccn2)c1)c1ccc(-c2ccccc2)cc1 [Compound 133, Biphenyl-4-carboxylic acid [4-fluoro-3-(pyrazin-2-yloxymethyl)-phenyl]-amide] |
| < 1000 | CN1CCCC(CNC(=O)c2cnc(OCc3c(Cl)cccc3Cl)cn2)C1 (stereo not shown) [Compound 162] |
| < 20 | Clc1cccc(Cl)c1COc1cnc(NCc2ccccc2)cn1 [Compound 141, Benzyl-[5-(2,6-dichloro-benzyloxy)-pyrazin-2-yl]-amine] |
| < 2 | O=C(Nc1ccc(F)c(COc2cnccn2)c1)Nc1cc(-c2ccccc2)nn1-c1ccccc1 [Compound 134, 1-(2,5-Diphenyl-2H-pyrazol-3-yl)-3-[4-fluoro-3-(pyrazin-2-yloxymethyl)-phenyl]-urea] |
